From patent US10023602B2, “Hamamelitannin analogues and uses thereof” (Universiteit Gent, priority 2014, dated 2018)
pEC50: −log10 of the molar value.

Key:
[1] = system: methicillin resistant S. aureus Mu50 strain (S. aureus ATCC700699) biofilm; experiment: Biofilm susceptibility to vancomycin, pre-treatment regimen (biofilm formed in presence of compound, then vancomycin); format: cell-based; conditions: for Pretreat (100 μM): percentage Colony Forming Units (CFU's) per biofilm: compound 100 μM during biofilm formation; for pEC50: concentration needed to get 50% killing compared to antibiotic alone (VAN 20 μg/ml) and complete killing, read-out: Pretreat. (EC50)
Outline: (§1)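 Mu50 biofilms from 10^8 CFU/ml inoculum (4 h adhesion, then 20 h, 37 °C). Pre-treatment: compound (0.1-250 μM) present during biofilm formation, then vancomycin 20 μg/ml alone 24 h; combination: mature biofilm given vancomycin 20 μg/ml plus compound 24 h. Survivors counted by plating versus vancomycin alone.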

[2] = system: methicillin resistant S. aureus Mu50 strain (S. aureus ATCC700699) biofilm; experiment: Biofilm susceptibility to vancomycin, combination treatment regimen (mature biofilm treated with compound plus vancomycin); format: cell-based; conditions: for Combin. (100 μM): percentage Colony Forming Units (CFU's) per biofilm: compound 100 μM together with VAN 20 μg/ml on mature biofilm; for pEC50: concentration needed to get 50% killing compared to antibiotic alone (VAN 20 μg/ml) and complete killing, read-out: Combin. (EC50)
Outline: as §1

[3] = then VAN 20 μg/ml, compared to the untreated (negative) control
[4] = compared to the untreated (negative) control

Row | SMILES | Pretreat (100 μM): percentage Colony Forming Units (CFU's) per biofilm [1, 3] | pEC50 [1] | Combin. (100 μM): percentage Colony Forming Units (CFU's) per biofilm [2, 4] | pEC50 [2] | Pretreat. (25 μM): percentage Colony Forming Units (CFU's) per biofilm ([1]; compound 25 μM during biofilm formation, then VAN 20 μg/ml, compared to the untreated (negative) control) | Combin. (25 μM): percentage Colony Forming Units (CFU's) per biofilm ([2]; compound 25 μM together with VAN 20 μg/ml on mature biofilm, compared to the untreated (negative) control)
1 | Cn1nccc1C(=O)NC[C@H]1OC[C@@](O)(CNC(=O)c2ccccc2)[C@@H]1O [compound 209, N-(((2R,3R,4S)-4-(benzamidomethyl)-3,4-dihydroxytetrahydrofuran-2-yl)methyl)-1-methyl-1H-pyrazole-5-carboxamide] | 22.47 percentage | 4.53 | 21.74 percentage | 4.63 |  | 
2 | Cn1cc(C(=O)NC[C@H]2OC[C@@](O)(CNC(=O)c3ccccc3)[C@@H]2O)c2ccccc21 [compound 187, N-(((2R,3R,4S)-4-(benzamidomethyl)-3,4-dihydroxytetrahydrofuran-2-yl)methyl)-1-methyl-1H-indole-3-carboxamide] | 32.91 percentage |  | 29.24 percentage |  |  | 
3 | O=C(NC[C@]1(O)CO[C@H](CNS(=O)(=O)c2ccccc2Cl)[C@H]1O)c1ccccc1 [compound 218, N-(((3S,4R,5R)-5-(((2-chlorophenyl)sulfonamido)methyl)-3,4-dihydroxytetrahydrofuran-3-yl)methyl)benzamide] | 35.03 percentage |  | 26.88 percentage |  |  | 
4 | Cn1cncc1C(=O)NC[C@H]1OC[C@@](O)(CNC(=O)c2ccccc2)[C@@H]1O [compound 210, N-(((2R,3R,4S)-4-(benzamidomethyl)-3,4-dihydroxytetrahydrofuran-2-yl)methyl)-1-methyl-1H-imidazole-5-carboxamide] | 22.10 percentage | 4.28 | 26.95 percentage | 4.23 |  | 
5 | O=C(NC[C@H]1OC[C@@](O)(CNC(=O)c2ccccc2)[C@@H]1O)c1cccnc1 [compound 167, N-(((2R,3R,4S)-4-(benzamidomethyl)-3,4-dihydroxytetrahydrofuran-2-yl)methyl)nicotinamide] | 9.813 percentage |  | 15.22 percentage |  |  | 
6 | O=C(NC[C@H]1OC[C@@](O)(CNC(=O)c2ccccc2Cl)[C@@H]1O)c1ccnnc1 [compound 251, N-(((2R,3R,4S)-4-((2-chlorobenzamido)methyl)-3,4-dihydroxytetrahydrofuran-2-yl)methyl)pyridazine-4-carboxamide] | 3.85 percentage | 5.47 | 37.03 percentage | 4.00 |  | 
7 | O=C(NC[C@]1(O)CO[C@H](CNC(=O)c2ccncn2)[C@H]1O)c1ccccc1 [compound 204, N-(((2R,3R,4S)-4-(benzamidomethyl)-3,4-dihydroxytetrahydrofuran-2-yl)methyl)pyrimidine-4-carboxamide] | 13.04 percentage |  | 15.85 percentage |  |  | 
8 | O=C(NC[C@H]1OC[C@@](O)(CNC(=O)c2ccccc2)[C@@H]1O)c1cncnc1 [compound 205, N-(((2R,3R,4S)-4-(benzamidomethyl)-3,4-dihydroxytetrahydrofuran-2-yl)methyl)pyrimidine-5-carboxamide] | 6.699 percentage |  | 16.51 percentage |  |  | 
9 | O=C(NC[C@]1(O)CO[C@H](CNC(=O)c2c(Cl)cc(Cl)cc2Cl)[C@H]1O)c1ccccc1 [compound 194, N-(((2R,3R,4S)-4-(benzamidomethyl)-3,4-dihydroxytetrahydrofuran-2-yl)methyl)-2,4,6-trichlorobenzamide] | 20.50 percentage |  | 13.31 percentage |  |  | 
10 | O=C(NC[C@H]1OC[C@@](O)(CNC(=O)c2ccccc2)[C@@H]1O)c1ccc(-c2ccccc2)cc1 [compound 159, N-(((2R,3R,4S)-4-(benzamidomethyl)-3,4-dihydroxytetrahydrofuran-2-yl)methyl)-[1,1′-biphenyl]-4-carboxamide] | 10.97 percentage | 5.20 | 6.966 percentage | 4.95 |  | 
11 | O=C(NC[C@]1(O)CO[C@H](CNC(=O)c2c(Cl)cccc2Cl)[C@H]1O)c1ccccc1 [compound 192, N-(((2R,3R,4S)-4-(benzamidomethyl)-3,4-dihydroxytetrahydrofuran-2-yl)methyl)-2,6-dichlorobenzamide] | 31.41 percentage | 4.23 | 43.74 percentage | 3.87 |  | 
12 | O=C(NC[C@]1(O)CO[C@H](CNC(=O)c2cccc3ccccc23)[C@H]1O)c1ccccc1 [compound 184, N-(((2R,3R,4S)-4-(benzamidomethyl)-3,4-dihydroxytetrahydrofuran-2-yl)methyl)-1-naphthamide] | 33.91 percentage |  | 40.23 percentage |  |  | 
13 | O=C(NC[C@]1(O)CO[C@H](CNC(=O)c2ccccc2F)[C@H]1O)c1ccccc1 [compound 170, N-(((2R,3R,4S)-4-(benzamidomethyl)-3,4-dihydroxytetrahydrofuran-2-yl)methyl)-2-fluorobenzamide] | 11.84 percentage |  | 16.30 percentage |  |  | 
14 | O=C(NC[C@]1(O)CO[C@H](CNC(=O)c2ccccc2Cl)[C@H]1O)c1cccc(C(F)(F)F)c1 [compound 242, 2-chloro-N-(((2R,3R,4S)-3,4-dihydroxy-4-((3-(trifluoromethyl)benzamido)methyl)tetrahydrofuran-2-yl)methyl)benzamide] |  |  |  |  | 117.15 percentage | 87.14 percentage
15 | CC(=O)NC[C@H]1OC[C@@](O)(CNC(=O)c2ccccc2)[C@@H]1O [compound 225, N-(((3S,4R,5R)-5-(acetamidomethyl)-3,4-dihydroxytetrahydrofuran-3-yl)methyl)benzamide] | 23.96 percentage |  | 27.38 percentage |  |  | 
